assay: Log P by reversed-phase HPLC (C 18), acidic range; assay type: physicochemical; conditions: Table 1, labelled a): acidic range, 0.1% aqueous phosphoric acid/acetonitrile gradient, 43° C.
Procedure: Log P values given in the tables were determined in accordance with EEC Directive 79/831 Annex V.A8 by HPLC (High Performance Liquid Chromatography) using a reversed-phase column (C 18). Temperature: 43° C. (a) Mobile phases for the determination in the acidic range: 0.1% aqueous phosphoric acid, acetonitrile; linear gradient from 10% acetonitrile to 90% acetonitrile—the corresponding measurement results in Tables 1 and 2 are labelled^a).

Compound	log P
O=C1CCCC(=O)C1C(=O)c1ccc(Cl)c(CNC(=S)Nc2ccccc2)c1Cl [Example I-2-9]	log P = 3.05^a)
CC(C)NC(=O)N(Cc1c(Cl)ccc(C(=O)C2C(=O)CCCC2=O)c1Cl)C(C)C [Example I-2-10]	log P = 2.86^a)
CC(C)NC(=O)N(Cc1c(Cl)ccc(C(=O)c2cnn(C)c2O)c1Cl)C(C)C [Example I-2-11]	log P = 2.02^a)
CC(C)N(Cc1c(Cl)ccc(C(=O)C2C(=O)CCCC2=O)c1Cl)C(N)=O [Example I-2-12]	log P = 2.03^a)
COCC(=O)NCCOc1c(Cl)ccc(C(=O)C2C(=O)CCCC2=O)c1Cl [Example I-2-13]	log P = 2.12^a)
CC(C)N(Cc1c(Cl)ccc(C(=O)c2cnn(C)c2O)c1Cl)C(N)=O [Example I-2-14]	log P = 1.32^a)
CCNC(=O)N(Cc1c(Cl)ccc(C(=O)C2C(=O)CCCC2=O)c1Cl)C(C)C [Example I-2-15]	log P = 2.33^a)
CCNC(=O)N(Cc1c(Cl)ccc(C(=O)c2cnn(C)c2O)c1Cl)C(C)C [Example I-2-16]	log P = 1.42^a)
CC(C)N(Cc1c(Cl)ccc(C(=O)C2C(=O)CCCC2=O)c1Cl)C(=O)N(C)C [Example I-2-17]	log P = 2.82^a)
CC(C)N(Cc1c(Cl)ccc(C(=O)c2cnn(C)c2O)c1Cl)C(=O)N(C)C [Example I-2-18]	log P = 2.00^a)
Cc1ccccc1NC(=O)NCc1c(Cl)ccc(C(=O)c2cnn(C)c2O)c1Cl [Example I-2-19]	log P = 1.95^a)
CN(C)C(=O)NCc1c(Cl)ccc(C(=O)C2C(=O)CCCC2=O)c1Cl [Example I-2-21]	log P = 1.87^a)
CC(C)NC(=O)NCc1c(Cl)ccc(C(=O)c2cnn(C)c2O)c1Cl [Example I-2-22]	log P = 1.35^a)
CN(C)C(=O)NCc1c(Cl)ccc(C(=O)c2cnn(C)c2O)c1Cl [Example I-2-23]	log P = 1.13^a)
CN(C)C(=O)N(Cc1c(Cl)ccc(C(=O)C2C(=O)CCCC2=O)c1Cl)C1CC1 [Example I-2-24]	log P = 2.45^a)
CN(C)C(=O)N(Cc1c(Cl)ccc(C(=O)c2cnn(C)c2O)c1Cl)c1ccc(Cl)cc1 [Example I-2-25]	log P = 1.69^a)
CC(C)N(Cc1c(Cl)ccc(C(=O)C2C(=O)CCCC2=O)c1Cl)C(=O)Oc1ccccc1 [Example I-2-42]	log P = 4.25^a)
CC(C)N(Cc1c(Cl)ccc(C(=O)c2cnn(C)c2O)c1Cl)C(=O)Oc1ccccc1 [Example I-2-43]	log P = 3.19^a)
CCOC(=O)N(Cc1c(Cl)ccc(C(=O)C2C(=O)CCCC2=O)c1Cl)C(C)C [Example I-2-44]	log P = 3.69^a)
CCOC(=O)N(Cc1c(Cl)ccc(C(=O)c2cnn(C)c2O)c1Cl)C(C)C [Example I-2-45]	log P = 2.69^a)

Compound	log P
CC(C)NC(=O)N(Cc1c(Cl)ccc(C(=O)C2C(=O)CCCC2=O)c1Cl)C1CC1 [Example I-2-56]	log P = 2.75^a)
CNC(=S)N(Cc1c(Cl)ccc(C(=O)c2cnn(C)c2O)c1Cl)C(C)C [Example I-2-58]	log P = 1.91^a)
CNC(=O)N(C)Cc1c(Cl)ccc(C(=O)C2C(=O)CCCC2=O)c1Cl [Example I-2-59]	log P = 1.81^a)
CNC(=O)N(C)Cc1c(Cl)ccc(C(=O)c2cnn(C)c2O)c1Cl [Example I-2-60]	log P = 1.11^a)
CN(C)C(=O)N(C)Cc1c(Cl)ccc(C(=O)C2C(=O)CCCC2=O)c1Cl [Example I-2-61]	log P = 2.26^a)
CN(C)C(=O)N(C)Cc1c(Cl)ccc(C(=O)c2cnn(C)c2O)c1Cl [Example I-2-62]	log P = 1.48^a)
CNC(=S)N(C)Cc1c(S(C)(=O)=O)ccc(C(=O)C2C(=O)CCCC2=O)c1Cl [Example I-2-63]	log P = 1.81^a)
CNC(=S)N(C)Cc1c(S(C)(=O)=O)ccc(C(=O)c2cnn(C)c2O)c1Cl [Example I-2-64]	log P = 1.00^a)
Cn1ncc(C(=O)c2ccc(S(C)(=O)=O)c(CNC(N)=O)c2Cl)c1O [Example I-2-65]	log P = 0.30^a)
CCNC(=O)NCc1c(S(C)(=O)=O)ccc(C(=O)C2C(=O)CCCC2=O)c1Cl [Example I-2-66]	log P = 1.57^a)
O=C(NCCOc1c(Cl)ccc(C(=O)C2C(=O)CCCC2=O)c1Cl)C1CC1 [Example I-2-68]	log P = 2.28^a)
CC(C)OC(=O)NCCOc1c(Cl)ccc(C(=O)C2C(=O)CCCC2=O)c1Cl [Example I-2-69]	log P = 2.98^a)
CNC(=O)NCCOc1c(Cl)ccc(C(=O)C2C(=O)CCCC2=O)c1Cl [Example I-2-73]	log P = 1.84^a)
CNC(=S)NCCOc1c(Cl)ccc(C(=O)C2C(=O)CCCC2=O)c1Cl [Example I-2-75]	log P = 2.23^a)
Cc1ccccc1NC(=O)NCc1c(S(C)(=O)=O)ccc(C(=O)c2cnn(C)c2O)c1Cl [Example I-2-81]	log P = 1.58^a)
CN(C)C(=O)NCc1c(S(C)(=O)=O)ccc(C(=O)C2C(=O)CCCC2=O)c1Cl [Example I-2-82]	log P = 1.58^a)
CN(C)C(=O)NCc1c(S(C)(=O)=O)ccc(C(=O)c2cnn(C)c2O)c1Cl [Example I-2-83]	log P = 0.77^a)
Cn1ncc(C(=O)c2ccc(Cl)c(OCCNC(N)=O)c2Cl)c1O [Example I-2-118]	log P = 1.66^a)
Cn1ncc(C(=O)c2ccc(Cl)c(OCCNC(N)=O)c2Cl)c1O [Example I-2-119]	log P = 1.22^a)
Cc1ccccc1NC(=O)NCc1c(S(C)(=O)=O)ccc(C(=O)C2C(=O)CCCC2=O)c1Cl [Example I-2-140]	log P = 2.35^a)

same assay, conditions: reversed-phase HPLC (C 18), acidic range: 0.1% aqueous phosphoric acid, acetonitrile; 43° C.; labelled a)

Compound	log P
CC(C)NC(=O)N(Cc1ccc(C(=O)C2C(=O)CCCC2=O)c([N+](=O)[O-])c1)C(C)C [Example I-3-5]	log P = 2.53^a)
CC(C)NC(=O)N(Cc1ccc(C(=O)c2cnn(C)c2O)c([N+](=O)[O-])c1)C(C)C [Example I-3-6]	log P = 1.64^a)
CC(C)N(Cc1ccc(C(=O)c2cnn(C)c2O)c([N+](=O)[O-])c1)C(=O)N(C)C [Example I-3-7]	log P = 1.63^a)
CCNC(=O)N(Cc1ccc(C(=O)C2C(=O)CCCC2=O)c([N+](=O)[O-])c1)c1ccccc1 [Example I-3-8]	log P = 2.60^a)
CCNC(=O)N(Cc1ccc(C(=O)c2cnn(C)c2O)c([N+](=O)[O-])c1)c1ccccc1 [Example I-3-9]	log P = 1.75^a)

same assay, conditions: reversed-phase HPLC column (C 18); given in the preparation examples, acidic or neutral range not given

Compound	chromatographic logP
O=C(O)c1ccc(Cl)c(OCCCl)c1Cl [2,4-dichloro-3-(2-chloro-ethoxy)-benzoic acid]	2.31
CCn1ncc(C(=O)c2ccc(Cl)c(OCCNC(=S)NC)c2Cl)c1O [Example I-2-2, N-(2-{2,6-dichloro-3-[(1-ethyl-5-hydroxy-1H-pyrazol-4-yl)-carbonyl]-phenoxy}-ethyl)-N′-methyl-thiourea]	1.6

Reference: patent publication US7456133B2, “Substituted arylketones” (Bayer CropScience AG, priority 2001, dated 2008)
